The results in this text go back to PubChem BioAssay AID179 (DTP/NCI, 2004).

Usually pEC50 stands for −log10 of the EC50, conventionally taken in molar units. By pIC50 is commonly meant the negative decadic logarithm of the IC50, by convention in mol/L.

This assay has as its system CEM cells HIV-1 protection, formazan growth assay. The experiment in a line: NCI AIDS Antiviral Assay. The settings on record: for pIC50: measured here: growth of uninfected CEM cells. In outline: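 Soluble formazan readout of cell growth; CEM cells ± HIV-1; 5 drug concs. ≥50% protection → retest; ≥50% again = moderately active; reproducible 100% = confirmed active.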

The structures appear in SMILES notation. pEC50, pIC50: −log10 of the molar value. Activity calls are given as the source filed them.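 The calls were made as follows: active = compounds giving half or more protection of infected cells from virus-caused growth loss, again on retest; inactive = the rest.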

For the compound `CCCCCCOc1ccc(C(=O)NOC)cc1`, the pEC50 was less than 3.70 and the pIC50 is 3.96. With `CCOC(=O)/C(I)=C/c1cc(OC)c(OC)c(OC)c1`, the pEC50 was less than 3.85 and the pIC50 was 4.07. Take `N#Cc1cccc(Nc2ccccc2SSc2ccccc2Nc2cccc(C#N)c2)c1`: the pEC50 is less than 4.23 and the pIC50 is 5.32. The corresponding values for `COC(=O)NC1(NC(=O)OC)NC(=O)c2ccccc2N1` are less than 3.70 and less than 3.70. The matching figures for `N=C(N)SCc1ccc(N=C=S)cc1`: less than 3.70 and 4.08. The corresponding values for `COc1cccc2c1CCc1cc3c(N)nc(N)nc3nc1-2` are less than 3.70 and 5.28. As for `CC(C)CC1C(=O)OC(C)(C)OC1=O`, the pEC50 was less than 3.70 and the pIC50 is less than 3.70. `Cc1[nH]c2c(ccc3c2ccc2c(=O)c(C)c(C)[nH]c23)c(=O)c1C`: the pEC50 is less than 3.70 and the pIC50 is 3.86. The corresponding values for `CN1C(=O)c2ccccc2Cc2c(N3CCCC3)ncnc21` are less than 4.75 and less than 4.75.

Consider `CN(C)CCNC(=O)c1nc([N+](=O)[O-])cn1C`, for which the pEC50 was less than 3.70 and the negative-log IC50 (pIC50) was less than 3.70. For `CCc1cccc(C(C)(C)C)c1NC(=S)N/C=C(\C#N)C(=O)c1ccc2ccccc2c1`, the pEC50 is less than 3.70 and the negative-log IC50 (pIC50) was 4.03. Consider `CSCCC(NC(=O)OCc1ccccc1)P(=O)(O)c1ccccc1` (stereo unspecified), for which the pEC50 is less than 3.70 and the negative-log IC50 (pIC50) is less than 3.70. For the compound `C/C(=N/NC(=S)Nc1ccccc1Cl)c1ccccn1`, the pEC50 was less than 6.70 and the pIC50 is 7.43. For the compound `CNNC(=NS(=O)(=O)c1cc(C#N)c(NNC)cc1S)NNC`, the result was inactive. Turning to `Cc1noc2cccc(OCc3ccccc3)c12`, the pEC50 is less than 4.52 and the negative-log IC50 (pIC50) is less than 4.52. With `Cc1cc2occ(/C=C\C3=C(C#N)C(=O)OC(C)(C)C3)c(=O)c2cc1C`, the pEC50 is less than 5.11 and the negative logarithm of the IC50 (pIC50) is less than 5.11. `Cn1c(=O)c2c(=O)c(=O)[nH][nH]c2n(C)c1=O`: the pEC50 is less than 3.70 and the negative logarithm of the IC50 (pIC50) is less than 3.70. `CCC(Oc1c2ccoc2c(OC)c2oc(=O)cc(O)c12)C(=O)O` (stereo unspecified): the pEC50 was less than 3.57 and the pIC50 is less than 3.57. Turning to `CCCCCCCCCCCCCCCCOCC(CP(=O)([O-])OCC[n+]1ccccc1)OC` (stereo unspecified), the pEC50 is less than 5.30 and the negative-log IC50 (pIC50) was 5.60. The matching figures for `CC/C(=C/OC)P1(=O)OC(C)(C)CN1C(C)(C)C` (stereo unspecified): less than 3.70 and 3.82. As to `CNC(=O)Oc1ccc(Cl)cc1SSc1cc(Cl)ccc1OC(=O)NC`, the pEC50 is less than 3.70 and the negative logarithm of the IC50 (pIC50) is 5.08. On to `Cc1cn([C@H]2C[C@@H]3[C@@H](COC(CC[Se]C#N)N3O)O2)c(=O)[nH]c1=O` (stereo partly specified), for which the pEC50 is 5.40 and the negative-log IC50 (pIC50) is 4.54. The matching figures for `O=S(=O)(c1ccccc1)n1cnc(CCc2ccccc2)n1`: less than 3.10 and less than 3.10. Consider `O=C(C(=O)n1ccc2ccccc21)c1c[nH]c2ccccc12`, for which the pEC50 was less than 3.70 and the negative logarithm of the IC50 (pIC50) is less than 3.70. With `CC(=O)NCCSS(=O)(=O)CCCCS(=O)(=O)SCCNC(C)=O`, the pEC50 is 3.93 and the pIC50 was 3.67. For the compound `COc1ccc([C@H]2c3cc4c(cc3OC(O)(CO)[C@H]2C(=O)O)OCO4)c(OC)c1` (stereo partly specified) (tested in a mixture with another compound), the result was inactive.

Consider `Cc1[nH]n(C(=O)c2ccc(Cl)cc2)c(=O)c1/C=C1\C(O)=CC(=O)c2ccccc21`, for which the pEC50 was less than 4.89 and the negative-log IC50 (pIC50) is less than 4.89. As to `OCC1OC(n2cnc3cncnc32)C(O)C1O` (stereo unspecified), the result was inactive. Still for that read-out and setting: the same measure for `Cc1nc2ccccc2c(=O)n1/N=C(\N=Nc1cc(Cl)ccc1Cl)c1ccc(N(C)C)cc1`: “inactive”. In the case of `Cc1nc2sc(C(=O)c3ccc(Cl)cc3)c(N)c2c(-c2ccccc2Cl)c1C(=O)Nc1ccccc1`, the pEC50 was less than 3.70 and the negative logarithm of the IC50 (pIC50) was 5.52. The corresponding values for `CC1=CC=NN2C(=O)[C@H](C)C2C1` (stereo partly specified) are less than 2.82 and less than 2.82. In the case of `O=C(O)Cc1cc(=O)[nH]c2c1C(=O)CCC2`, the outcome was inactive. Consider `c1ccc2cc3c(NC4=NCCO4)cccc3cc2c1`, for which the pEC50 is less than 3.70 and the pIC50 was 4.19. On to `CN(C)CC(CC1=C(CC(CN(C)C)N(C)C)CCC1)N(C)C` (stereo unspecified), for which the result was inactive. With `COC(=O)C(NC(=O)CSc1nnc(COc2ccc(Cl)cc2)n1-c1ccccc1)C(C)C` (stereo unspecified), the pEC50 is less than 3.70 and the negative-log IC50 (pIC50) was 4.92. The matching figures for `CC1CC(=O)Nc2ccc(Cl)cc2N1C(=O)CN1CCC(CCCCN(C)C)CC1` (stereo unspecified): less than 3.60 and 3.89.

Turning to `N#CC(/C(=N/NC(N)=S)C(=O)Nc1cccc(Cl)c1)c1ccccc1` (stereo unspecified), the pEC50 was less than 4.71 and the negative-log IC50 (pIC50) is 4.98.

Turning to `Cc1nc2ccc(S(=O)(=O)Nc3ccccc3)cc2c(=O)n1NC(=O)CNc1ccccc1`, the pEC50 was less than 3.70 and the pIC50 was 3.73. As for `COc1ccc(C(=O)C(c2ccc(OC)cc2)C2(O)C(=O)Nc3ccc([N+](=O)[O-])cc32)cc1` (stereo unspecified), the pEC50 was less than 4.10 and the pIC50 was less than 4.10. In the case of `O=C1CC2(CC=CCC23OCCO3)CC(CI)O1` (stereo unspecified), the pEC50 is less than 3.70 and the pIC50 was less than 3.70. Turning to `CS(=O)(=O)OCC1CN(S(C)(=O)=O)c2cc(O)ccc21` (stereo unspecified), the pEC50 was less than 3.70 and the pIC50 is 5.82. For the compound `O=[N+]([O-])c1cccc(C2=NOC(C3CCCCC3)C2)c1` (stereo unspecified), the pEC50 was less than 4.44 and the pIC50 is less than 4.44. As to `C[C@@H](O)[C@H]1/C=C/C=C\C(=O)O[C@@H]2C[C@H]3O[C@@H]4[C@@H]5OC5(C)CCC4(COC(=O)[C@H]4O[C@]4(C)[C@@H](O)CO1)[C@]2(C)[C@]31CO1` (stereo partly specified), the pEC50 was less than 6.70 and the negative logarithm of the IC50 (pIC50) was 7.20. The corresponding values for `COCc1cc(=O)oc2c3c(c4c(c12)OC(C)(C)C=C4)O[C@H](C)[C@@H](C)[C@H]3O` are 3.76 and 3.74. `COc1ccc2cc1Oc1ccc(cc1)CC1c3c(cc(OC)c4c3Oc3cc5c(cc3O4)CCN[C@@H]5C2)CCN1C` (stereo partly specified): the result was inactive. Regarding `O=C(O)CCc1ccc2c(c1)C(=O)CC2`, the pEC50 is less than 3.70 and the pIC50 was less than 3.70.

Turning to `COc1cc2c(cc1OC)C1Cc3cc(OC)c(OC)cc3C(C2)O1`, the pEC50 was less than 3.70 and the negative-log IC50 (pIC50) is 3.98.

On to `N=c1ccn2c(n1)OC1C(OC(=O)C34CC5CC(CC(C5)C3)C4)C(COC(=O)C34CC5CC(CC(C5)C3)C4)OC12` (stereo unspecified), for which the outcome was inactive.

For `CC(C)CC1=CC(=O)CN(CCc2c[nH]c3ccccc23)C1`, the pEC50 was less than 3.62 and the pIC50 was 3.90. The matching figures for `O=C1/C(=C\c2cccc(Oc3ccccc3)c2)SC(c2ccccc2)N1c1ccccc1` (stereo unspecified): less than 4.70 and 7.03. The matching figures for `C=C1C(=O)OC2CC(C)C3CC(O)OC(OCC)C3(C)CC12` (stereo unspecified): less than 4.08 and 4.81. Regarding `CSc1nc2c(nc(N)n2C2OC(CO)C(O)C(O)C2O)c(=O)[nH]1` (stereo unspecified), the outcome was inactive. For the compound `CC(C)(C)C1CCC2(CC1)CC(=O)N(N1CCCCCC1)C(=O)C2`, the pEC50 was less than 3.70 and the negative logarithm of the IC50 (pIC50) is 4.26. The corresponding values for `CC(/C=N/N(C)C1=NCCCCN1)=N/N(C)C1=NCCCCN1` are less than 3.70 and less than 3.70. The matching figures for `CC1=CC(C)(C)C(C#N)(C#N)C(N)=C1C#N`: less than 3.70 and 4.02. The corresponding values for `CCc1ccccc1NC(=O)C1=C(C)NC(C)=C(C(=O)Nc2ccccc2CC)C1c1ccc2c(c1)OCO2` are less than 4.86 and less than 4.86. Regarding `CCN(CC)CCCC(C)Nc1cc(C)nc2c1ccc1c2ccc2c(NC(C)CCCN(CC)CC)cc(C)nc21` (stereo unspecified), the pEC50 is less than 4.18 and the pIC50 was 5.40. The matching figures for `SCCSCCCSCCS`: less than 4.64 and less than 4.64. For the compound `CC1(C)c2ccccc2N2O[C@@H]3C(=O)N(c4ccccc4)C(=O)[C@@H]3C21c1ccccc1` (stereo partly specified), the pEC50 was less than 4.44 and the pIC50 is less than 4.44. Regarding `CC(=O)c1ccc2c3ccccc3c3cccc4sc1c2c43`, the pEC50 is less than 4.65 and the pIC50 was less than 4.65. On to `O=c1cc(N2CCOCC2)n2c(ccc3ccccc32)n1`, for which the pEC50 is less than 3.70 and the pIC50 was 3.73. As for `COC(=O)C1=C(CS(=O)c2ccccc2[N+](=O)[O-])C2C=CC1C2` (stereo unspecified), the outcome was inactive. For the compound `COc1cc(/C=C/c2csnn2)cc(OC)c1OC`, the pEC50 is less than 3.33 and the pIC50 is 3.93. On to `N#C/C(=C\c1ccccc1)c1cccc(I)c1`, for which the pEC50 was less than 3.70 and the pIC50 was 4.26. The corresponding values for `Clc1ccc2c(NCCCCCCNc3ccnc4cc(Cl)ccc34)ccnc2c1` are less than 4.85 and 5.62. `CCOC(=O)c1cnc2n(c1=O)[C@H]1CCCC[C@@H]1N2`: the pEC50 is less than 3.70 and the negative-log IC50 (pIC50) is less than 3.70.

In the case of `Cc1[nH]c(=O)[nH]c(=O)c1/C=C/C(=O)NC(CO)CS(=O)Cc1ccccc1` (stereo unspecified), the pEC50 is less than 3.70 and the pIC50 was less than 3.70. For the compound `Nc1cc(=O)[nH][nH]1`, the pEC50 was less than 3.70 and the negative logarithm of the IC50 (pIC50) was less than 3.70. Regarding `CC1=CC(=O)C(=O)C2=C1OC1(C2)C(C)CCC2C3(C)CCC(O)C(C)(C)C3CCC21C` (stereo unspecified), the pEC50 is less than 4.00 and the pIC50 was 4.32.

Regarding `COc1ccc(/C=C2\N=C(N3CCCC(CO)C3)NC2=O)cc1` (stereo unspecified), the pEC50 was less than 3.70 and the pIC50 is less than 3.70. For the compound `CN(C)c1ccc(/C=C(\NC(=O)c2ccccc2)C(=O)Nc2ccccc2C(=O)NN2C(=O)CSC2c2ccc(N(C)C)cc2)cc1` (stereo unspecified), the pEC50 is less than 4.30 and the negative logarithm of the IC50 (pIC50) is less than 4.30.

Take `O=C(O)[C@@H]1[C@H](OCc2ccccc2)[C@H](OCc2ccccc2)CN1C(=O)OCc1ccccc1`: the pEC50 is less than 3.70 and the pIC50 was 3.94. For the compound `N#CSCC1COc2ccccc2O1` (stereo unspecified), the pEC50 was less than 3.70 and the negative logarithm of the IC50 (pIC50) is 5.91.
